How the values were obtained:
[1] = target: T1, EP3 membrane (EP3 receptor) (Homo sapiens, UniProt P43115); experiment: [3H]-PGE2 binding; EP3 competition binding (SPA)
T1 construct: purchased Millipore HTS092M
T1 sequence (P43115 1-390): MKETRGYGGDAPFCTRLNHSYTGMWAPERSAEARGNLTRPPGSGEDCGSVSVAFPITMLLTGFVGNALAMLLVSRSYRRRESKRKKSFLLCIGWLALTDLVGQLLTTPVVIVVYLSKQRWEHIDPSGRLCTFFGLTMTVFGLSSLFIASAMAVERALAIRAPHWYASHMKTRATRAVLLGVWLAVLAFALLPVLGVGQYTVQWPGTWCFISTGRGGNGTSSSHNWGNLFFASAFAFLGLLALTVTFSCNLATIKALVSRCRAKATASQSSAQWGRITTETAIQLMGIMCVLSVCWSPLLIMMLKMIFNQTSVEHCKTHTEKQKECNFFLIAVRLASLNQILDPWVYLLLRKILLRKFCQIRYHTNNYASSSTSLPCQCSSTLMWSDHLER
How it was run: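 SPA competition at room temperature, 2 h: EP3 membranes 2 μg/well, 2 nM [3H]-PGE2, 0.1% DMSO, in Tris/MgCl2/EDTA buffer pH 7.4. Compounds in 1:3 serial dilution; scintillation read; Ki by one-site nonlinear fit.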

[2] = target: T2, CHO cells over-expressing the EP3 receptor (Homo sapiens, UniProt P43115); experiment: CHO cell cAMP assay; EP3 cAMP antagonist dose response (sulprostone reference), HTRF; assay type: cell-based; conditions: sulprostone 700 nM (EC80) and FSK 2 μM (EC70); read-out: CHO_cAMP IC50
T2 construct: expressed in transfected cells; host or cells: CHO cells
T2 sequence (P43115 1-390): T1 sequence (P43115 1-390)
How it was run: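 EP3-overexpressing CHO cells pre-incubated with test compound, then stimulated 30 min at 37 °C with FSK (2 μM, EC70) plus sulprostone (700 nM, EC80); antagonism seen as restored cAMP. cAMP measured by HTRF 665/615 ratio, converted via on-plate standard curve. IC50 from Hill fit of 11-point dosing.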

| Ki [1] | IC50 [2] | SMILES |
| --- | --- | --- |
| > 10000 nM | 15700 nM | O=C(NS(=O)(=O)c1ccc(Cl)cc1)OC/C=C1\c2c(cnn2Cc2ccc(Cl)cc2Cl)CCC1F (stereo not shown) [Compound #51, (E)-2-(1-(2,4-dichlorobenzyl)-6-fluoro-1,4,5,6-tetrahydro-7H-indazol-7-ylidene)ethyl ((4-chlorophenyl)sulfonyl)carbamate] |
| 1 nM | 3 nM | O=C(CC/C=C1\CCCc2cnn(-c3cccc(-c4ccccc4)c3)c21)NS(=O)(=O)c1cc(Cl)c(Cl)s1 [Compound #52, (E)-4-(1-([1,1′-biphenyl]-3-yl)-1,4,5,6-tetrahydro-7H-indazol-7-ylidene)-N-((4,5-dichlorothiophen-2-yl)sulfonyl)butanamide] |
| 4 nM | 18 nM | O=C(CC/C=C1\CCCc2cnn(-c3cccc(-c4ccc(Cl)cc4Cl)c3)c21)NS(=O)(=O)c1cc(Cl)c(Cl)s1 [Compound #53, (E)-4-(1-(2′,4′-dichloro-[1,1′-biphenyl]-3-yl)-1,4,5,6-tetrahydro-7H-indazol-7-ylidene)-N-((4,5-dichlorothiophen-2-yl)sulfonyl)butanamide] |
| 3 nM | 24 nM | O=C(NC/C(F)=C1\COCc2cnn(Cc3ccc(Cl)cc3Cl)c21)NS(=O)(=O)c1cc(Cl)c(Cl)s1 [Compound #54, (E)-4,5-dichloro-N-((2-(1-(2,4-dichlorobenzyl)-1,4-dihydropyrano[4,3-c]pyrazol-7(6H)-ylidene)-2-fluoroethyl)carbamoyl)thiophene-2-sulfonamide] |
| 3 nM | 11 nM | CN(C/C=C1\COCc2cnn(Cc3ccc(Cl)cc3Cl)c21)C(=O)NS(=O)(=O)c1cc(Cl)c(Cl)s1 [Compound #55, (Z)-4,5-dichloro-N-((2-(1-(2,4-dichlorobenzyl)-1,4-dihydropyrano[4,3-c]pyrazol-7(6H)-ylidene)ethyl)(methyl)carbamoyl)thiophene-2-sulfonamide] |
| 1 nM | 4 nM | O=C(CC/C(F)=C1\CCCc2cnn(Cc3ccc(Cl)cc3Cl)c21)NS(=O)(=O)c1cc(Cl)c(Cl)s1 [Compound #56, (Z)-4-(1-(2,4-dichlorobenzyl)-1,4,5,6-tetrahydro-7H-indazol-7-ylidene)-N-((4,5-dichlorothiophen-2-yl)sulfonyl)-4-fluorobutanamide] |
| 1 nM | 3 nM | O=C(CC/C=C1\COCc2cnn(Cc3ccc(Cl)cc3Cl)c21)NS(=O)(=O)c1cc(Cl)c(Cl)s1 [Compound #57, (Z)-4-(1-(2,4-dichlorobenzyl)-1,4-dihydropyrano[4,3-c]pyrazol-7(6H)-ylidene)-N-((4,5-dichlorothiophen-2-yl)sulfonyl)butanamide] |
| 110 nM | 1300 nM | COc1ccccc1S(=O)(=O)NC(=O)NC/C=C1\COCc2cnn(Cc3ccc(Cl)cc3Cl)c21 [Compound #58, (Z)—N-((2-(1-(2,4-dichlorobenzyl)-1,4-dihydropyrano[4,3-c]pyrazol-7(6H)-ylidene)ethyl)carbamoyl)-2-methoxybenzenesulfonamide] |
| 5 nM | 12 nM | CN(C/C(F)=C1\CCCc2cnn(Cc3ccc(Cl)cc3Cl)c21)C(=O)NS(=O)(=O)c1cc(Cl)c(Cl)s1 [Compound #59, (Z)-4,5-dichloro-N-((2-(1-(2,4-dichlorobenzyl)-1,4,5,6-tetrahydro-7H-indazol-7-ylidene)-2-fluoroethyl)(methyl)carbamoyl)thiophene-2-sulfonamide] |
| 7 nM | 4 nM | O=C(NC/C(F)=C1/COCc2cnn(Cc3ccc(Cl)cc3Cl)c21)NS(=O)(=O)c1cc(Cl)c(Cl)s1 [Compound #60, (Z)-4,5-dichloro-N-((2-(1-(2,4-dichlorobenzyl)-1,4-dihydropyrano[4,3-c]pyrazol-7(6H)-ylidene)-2-fluoroethyl)carbamoyl)thiophene-2-sulfonamide] |
| 7 nM | 17 nM | O=C(CC/C(F)=C1\COCc2cnn(Cc3ccc(Cl)cc3Cl)c21)NS(=O)(=O)c1cc(Cl)c(Cl)s1 [Compound #61, (E)-4-(1-(2,4-dichlorobenzyl)-1,4-dihydropyrano[4,3-c]pyrazol-7(6H)-ylidene)-N-((4,5-dichlorothiophen-2-yl)sulfonyl)-4-fluorobutanamide] |
| 63 nM | 245 nM | COc1ccc(S(=O)(=O)NC(=O)NC/C=C2\COCc3cnn(Cc4ccc(Cl)cc4Cl)c32)cc1 [Compound #62, (Z)—N-((2-(1-(2,4-dichlorobenzyl)-1,4-dihydropyrano[4,3-c]pyrazol-7(6H)-ylidene)ethyl)carbamoyl)-4-methoxybenzenesulfonamide] |
| 44 nM | 121 nM | COc1cccc(S(=O)(=O)NC(=O)NC/C=C2\COCc3cnn(Cc4ccc(Cl)cc4Cl)c32)c1 [Compound #63, (Z)—N-((2-(1-(2,4-dichlorobenzyl)-1,4-dihydropyrano[4,3-c]pyrazol-7(6H)-ylidene)ethyl)carbamoyl)-3-methoxybenzenesulfonamide] |
| 12 nM | 81 nM | COc1ccc(F)cc1S(=O)(=O)NC(=O)NC/C=C1\COCc2cnn(Cc3ccc(Cl)cc3Cl)c21 [Compound #64, (Z)—N-((2-(1-(2,4-dichlorobenzyl)-1,4-dihydropyrano[4,3-c]pyrazol-7(6H)-ylidene)ethyl)carbamoyl)-5-fluoro-2-methoxybenzenesulfonamide] |
| 27 nM | 44 nM | COc1ccc(Cl)c(S(=O)(=O)NC(=O)NC/C=C2\COCc3cnn(Cc4ccc(Cl)cc4Cl)c32)c1 [Compound #65, (Z)-2-chloro-N-((2-(1-(2,4-dichlorobenzyl)-1,4-dihydropyrano[4,3-c]pyrazol-7(6H)-ylidene)ethyl)carbamoyl)-5-methoxybenzenesulfonamide] |
| 4 nM | 21 nM | COc1ccc(Cl)cc1S(=O)(=O)NC(=O)NC/C=C1\COCc2cnn(Cc3ccc(Cl)cc3Cl)c21 [Compound #66, (Z)-5-chloro-N-((2-(1-(2,4-dichlorobenzyl)-1,4-dihydropyrano[4,3-c]pyrazol-7(6H)-ylidene)ethyl)carbamoyl)-2-methoxybenzenesulfonamide] |
| 26 nM | 74 nM | COc1ccc(S(=O)(=O)NC(=O)NC/C=C2\COCc3cnn(Cc4ccc(Cl)cc4Cl)c32)cn1 [Compound #67, (Z)—N-((2-(1-(2,4-dichlorobenzyl)-1,4-dihydropyrano[4,3-c]pyrazol-7(6H)-ylidene)ethyl)carbamoyl)-6-methoxypyridine-3-sulfonamide] |
| 27 nM | 32 nM | COc1ccc(F)c(S(=O)(=O)NC(=O)NC/C=C2\COCc3cnn(Cc4ccc(Cl)cc4Cl)c32)c1 [Compound #68, (Z)—N-((2-(1-(2,4-dichlorobenzyl)-1,4-dihydropyrano[4,3-c]pyrazol-7(6H)-ylidene)ethyl)carbamoyl)-2-fluoro-5-methoxybenzenesulfonamide] |
| 179 nM | 118 nM | CC(C)S(=O)(=O)NC(=O)CC/C=C1\CCCc2cnn(Cc3ccc(Cl)cc3Cl)c21 [Compound #69, (E)-4-(1-(2,4-dichlorobenzyl)-1,4,5,6-tetrahydro-7H-indazol-7-ylidene)-N-(isopropylsulfonyl)butanamide] |
| 1000 nM | 8200 nM | O=C(NC/C=C1\CC(F)(F)Cc2cnn(-c3cccc(C(F)(F)F)c3)c21)NS(=O)(=O)c1ccc(Cl)cc1 [Compound #70, (E)-4-chloro-N-((2-(5,5-difluoro-1-(3-(trifluoromethyl)phenyl)-1,4,5,6-tetrahydro-7H-indazol-7-ylidene)ethyl)carbamoyl)benzenesulfonamide] |

— US20210253562A1, “ACYLSUFONAMIDE COMPOUNDS USEFUL AS EP3 RECEPTOR ANTAGONISTS” (Janssen Pharmaceutica NV, priority 2018, published 2021)
